Laboratory results from US10596212B2, “Mangifera indica as a Sirtuin 1 activating agent” (Vital Solutions Swiss AG, priority 2014, dated 2020).

Biological target: T1, human recombinant SIRT1 (Homo sapiens, UniProt Q96EB6)
T1 construct: purchased Cayman Chemical
T1 sequence (Q96EB6 1-747): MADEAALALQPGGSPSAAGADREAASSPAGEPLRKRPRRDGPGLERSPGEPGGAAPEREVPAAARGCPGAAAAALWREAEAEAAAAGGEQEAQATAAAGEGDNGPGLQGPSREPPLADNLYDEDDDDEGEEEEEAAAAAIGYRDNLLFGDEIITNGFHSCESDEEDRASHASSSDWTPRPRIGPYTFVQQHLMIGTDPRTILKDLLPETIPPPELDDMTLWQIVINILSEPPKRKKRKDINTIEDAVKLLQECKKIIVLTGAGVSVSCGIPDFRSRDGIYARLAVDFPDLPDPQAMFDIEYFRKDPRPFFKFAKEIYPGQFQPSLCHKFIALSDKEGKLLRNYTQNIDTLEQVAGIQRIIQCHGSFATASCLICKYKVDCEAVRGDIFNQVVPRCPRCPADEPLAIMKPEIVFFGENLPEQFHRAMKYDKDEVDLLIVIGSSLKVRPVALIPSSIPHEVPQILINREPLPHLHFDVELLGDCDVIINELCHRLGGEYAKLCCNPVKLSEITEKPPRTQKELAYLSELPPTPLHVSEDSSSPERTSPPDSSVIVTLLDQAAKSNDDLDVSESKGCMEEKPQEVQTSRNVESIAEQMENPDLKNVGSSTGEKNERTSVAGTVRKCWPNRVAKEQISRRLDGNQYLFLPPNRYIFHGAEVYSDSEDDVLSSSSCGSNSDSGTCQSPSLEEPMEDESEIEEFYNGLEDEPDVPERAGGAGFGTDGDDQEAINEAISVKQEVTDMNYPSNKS
Experiment: SIRT1 Direct Fluorescent Screening Assay (Cayman Chemical), SIRT1 activation
Assay type: biochemical
Settings: positive control, working concentration 1 mM, final assay concentration 32.5 μg/ml
Method: The assay was performed using SIRT1 Direct Fluorescent Screening Assay kit, (Cayman Chemical). In the assay resveratrol was used as a positive comparative control in the working concentration of 1 mM, or 228 μg/ml corresponding to a final assay concentration of 32.5 μg/ml.
Cayman's SIRT1 Direct Fluorescent Screening Assay Kit is fluorescence-based method for screening SIRT1 inhibitors or activators. In the first step, the substrate is incubated with human recombinant SIRT1 along with its co-substrate NAD+. Deacetylation sensitizes the substrate such that treatment with the developer in the second step releases a fluorescent product. The fluorophore is analyzed using an excitation wavelength of 350-360 nm and an emission wavelength of 450-465 nm.
The activation is calculated as % activation=(Sample−Initial Activity)/Initial Activity*100.

Oc1ccc(C=Cc2cc(O)cc(O)c2)cc1 [resveratrol]
activation of SIRT1: 37.5%
